According to patent EP0603240B1, “SAFENING HERBICIDAL PYRAZOLYLSULFONYLUREAS” (priority 1991, dated 1993):

Experiments:
Format in all cases: in vivo
[1] = system: velvetleaf (Abutilon theophrasti); test: Example 7, Procedure II: Herbicide No. 1 + metolachlor (No. 12) with antidotes
In short: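 Herbicide and antidote in acetone were mixed into silt loam soil used to cover seeded beds, followed by 0.6 cm overhead irrigation, then sub-irrigation in the greenhouse. Percent injury was scored against herbicide-alone and untreated controls, averaged over duplicates. Herbicide No. 1 was combined with metolachlor.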

[2] = system: barnyardgrass (Echinochloa crusgalli); test: Example 11, Procedure II: Herbicide No. 1 + metazachlor (No. 14) with antidotes
Description: (§1) Containers were filled and compacted with a fumigated silt loam top soil to a depth of about 1.3 cm from the top of the container. A first container was designated as an untreated control, a second container was designated as a herbicide control, and a third container was designated as a herbicide + antidote test container. Each of the containers was seeded with a crop species. A measured amount of herbicide dispersed or dissolved in acetone was applied to a measured quantity of soil. To this same quantity of soil treated with herbicide, there was added a measured amount of antidote dispersed or dissolved in acetone. The quantity of soil treated with the herbicide and antidote was thoroughly mixed to incorporate the herbicide and antidote in the soil uniformly. The seed bed in the third container of soil was covered with the soil treated with the herbicide and antidote and the container was leveled. For each test series, the seed beds of the first and second containers were likewise covered by soil layers. the cover layer of the first container was not treated with herbicide or antidote.
(§2) The containers were then placed on a bench in a greenhouse and sub-irrigated as required for the duration of the test. […] Plant response is measured in terms of percent injury. Antidote efficacy is indicated as the difference in plant injury by the herbicide(s) without the antidote and with the antidote.
(§3) This procedure is the same as Procedure I, but modified in the manner that after incorporation of the chemicals (herbicide and antidote) the containers with the covered seedbed were treated with an initial overhead irrigation equivalent to 0.6 cm rainfall, then subsequently sub-irrigated as required on greenhouse benches.
(§4) In the series of greenhouse tests described below, for routine screening purposes the herbicide/antidote compositions were tested in crop/weed combinations involving corn as the crop and either or both of the weeds barnyardgrass (Echinochloa crusgalli), a monocotyledonous weed, and velvetleaf (Abutilon theophrasti), a dicotyledonous weed. In the tables below, these weeds are indicated by the symbols "BYG" and "VL", respectively.
In this example, yet another α-chloroacetanilide co-herbicide, metazachlor (Herbicide No. 14) was combined with Herbicide No. 1 for investigation of the effect of various safeners on that composition. Metazachlor is the active ingredient in the commercial herbicide BUTISAN® S, used here as a 500 g/L formulation.

corn [3] = test: Example 21, Procedure II: Herbicide No. 1 + SUTAN PLUS (butylate + antidote) with antidotes
Description: as §1, §2, §3
(§5) In this example, tests were conducted as in the preceding Examples 18-20, except here the co-herbicidal component was SUTAN® PLUS, a commercial product comprising as the active herbicidal ingredient the compound butylate (Herbicide No. 10) and an antidote […] (Antidote No. 1). Again, the antidotal compounds herein were Nos. 1, 2, 7, 13 and 15. Procedure II was used.

[4] = system: barnyardgrass (Echinochloa crusgalli); test: as above
Description: as §1, §2, §3, §4, §5

[5] = system: velvetleaf (Abutilon theophrasti); test: as above
Description: as §1, §2, §3, §4, §5

[6] = system: Giant foxtail (Setaria fabergi); test: Example 24, Procedure II: Herbicide No. 1 + co-herbicides Nos. 4, 6, 7, 12 with Antidote Nos. 15 and 17-21
In short: (§6)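 Greenhouse pots, herbicide No. 1 plus co-herbicides and antidote in acetone incorporated into silt loam soil covering the corn seed bed, with giant foxtail and velvetleaf; initial overhead irrigation equal to 0.6 cm rainfall, then sub-irrigation. Antidote at 2.24 kg/ha; percent injury read 13 days after application, duplicate average.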

corn [7] = test: as above
In short: as §6

[8] = system: velvetleaf (Abutilon theophrasti); test: as above
In short: as §6

[9] = Herbicide No.1 0.14 + No.12 3.36 kg/ha + antidote 2.24 kg/ha
[10] = Herbicide No.1 0.14 + No.12 3.36 kg/ha + antidote 8.96 kg/ha
[11] = Herbicide No.1 0.56 + No.12 3.36 kg/ha + antidote 2.24 kg/ha
[12] = Herbicide No.1 0.56 + No.12 3.36 kg/ha + antidote 8.96 kg/ha
[13] = Herbicide No.1 0.56 kg/ha + Herbicide No.14 3.36 kg/ha, antidote rate 2.24 kg/ha
[14] = Herbicide No.1 0.56 kg/ha + Herbicide No.14 3.36 kg/ha, antidote rate 8.96 kg/ha
[15] = Herbicide No.1 1.12 kg/ha + Herbicide No.14 3.36 kg/ha, antidote rate 2.24 kg/ha
[16] = Herbicide No.1 1.12 kg/ha + Herbicide No.14 3.36 kg/ha, antidote rate 8.96 kg/ha
[17] = Herbicide No.1 0.56 kg/ha + SUTAN + 8.96 kg/ha, antidote 2.24 kg/ha
[18] = Herbicide No.1 0.56 kg/ha + SUTAN + 8.96 kg/ha, antidote 8.96 kg/ha
[19] = Herbicide No.1 1.12 kg/ha + SUTAN + 8.96 kg/ha, antidote 2.24 kg/ha
[20] = Herbicide No.1 1.12 kg/ha + SUTAN + 8.96 kg/ha, antidote 8.96 kg/ha
[21] = Herb. No. 1 0.07 Kg/ha + Co-Herb. No. 4 1.12 Kg/ha + antidote 2.24 Kg/ha
[22] = Herb. No. 1 0.07 Kg/ha + Co-Herb. No. 6 0.14 Kg/ha + antidote 2.24 Kg/ha
[23] = Herb. No. 1 0.07 Kg/ha + Co-Herb. No. 7 0.28 Kg/ha + antidote 2.24 Kg/ha
[24] = Herb. No. 1 0.07 Kg/ha + Co-Herb. No. 12 0.28 Kg/ha + antidote 2.24 Kg/ha
[25] = Herb. No. 1 0.14 Kg/ha + Co-Herb. No. 4 1.12 Kg/ha + antidote 2.24 Kg/ha
[26] = Herb. No. 1 0.14 Kg/ha + Co-Herb. No. 6 0.14 Kg/ha + antidote 2.24 Kg/ha
[27] = Herb. No. 1 0.14 Kg/ha + Co-Herb. No. 7 0.28 Kg/ha + antidote 2.24 Kg/ha
[28] = Herb. No. 1 0.14 Kg/ha + Co-Herb. No. 12 0.28 Kg/ha + antidote 2.24 Kg/ha
[29] = Herb. No. 1 0.28 Kg/ha + Co-Herb. No. 4 1.12 Kg/ha + antidote 2.24 Kg/ha
[30] = Herb. No. 1 0.28 Kg/ha + Co-Herb. No. 6 0.14 Kg/ha + antidote 2.24 Kg/ha
[31] = Herb. No. 1 0.28 Kg/ha + Co-Herb. No. 7 0.28 Kg/ha + antidote 2.24 Kg/ha
[32] = Herb. No. 1 0.28 Kg/ha + Co-Herb. No. 12 0.28 Kg/ha + antidote 2.24 Kg/ha
[33] = Herb. No. 1 0.56 Kg/ha + Co-Herb. No. 4 1.12 Kg/ha + antidote 2.24 Kg/ha
[34] = Herb. No. 1 0.56 Kg/ha + Co-Herb. No. 6 0.14 Kg/ha + antidote 2.24 Kg/ha
[35] = Herb. No. 1 0.56 Kg/ha + Co-Herb. No. 7 0.28 Kg/ha + antidote 2.24 Kg/ha
[36] = Herb. No. 1 0.56 Kg/ha + Co-Herb. No. 12 0.28 Kg/ha + antidote 2.24 Kg/ha

## O=C(C(Cl)Cl)N1CCOC12CCCCC2 [compound 7]
[1]; [9]
  % Injury VL: 70%
[1]; [10]
  % Injury VL: 65%
[1]; [11]
  % Injury VL: 85%
[1]; [12]
  % Injury VL: 85%
[2]; [13]
  % Injury BYG: 99%
[2]; [14]
  % Injury BYG: 100%
[2]; [15]
  % Injury BYG: 99%
[2]; [16]
  % Injury BYG: 99%
Corn [3]; [17]
  % Injury Corn: 5%
Corn [3]; [18]
  % Injury Corn: 20%
Corn [3]; [19]
  % Injury Corn: 15%
Corn [3]; [20]
  % Injury Corn: 15%
[4]; [17]
  % Injury BYG: 25%
[4]; [18]
  % Injury BYG: 10%
[4]; [19]
  % Injury BYG: 40%
[4]; [20]
  % Injury BYG: 10%
[5]; [17]
  % Injury VL: 45%
[5]; [18]
  % Injury VL: 65%
[5]; [19]
  % Injury VL: 65%
[5]; [20]
  % Injury VL: 45%

## CC1(C(Cl)Cl)OCCO1 [compound 13]
[1]; [9]
  % Injury VL: 75%
[1]; [10]
  % Injury VL: 80%
[1]; [11]
  % Injury VL: 85%
[1]; [12]
  % Injury VL: 85%
[2]; [13]
  % Injury BYG: 100%
[2]; [14]
  % Injury BYG: 100%
[2]; [15]
  % Injury BYG: 100%
[2]; [16]
  % Injury BYG: 100%
Corn [3]; [17]
  % Injury Corn: 0%
Corn [3]; [18]
  % Injury Corn: 10%
Corn [3]; [19]
  % Injury Corn: 5%
Corn [3]; [20]
  % Injury Corn: 10%
[4]; [17]
  % Injury BYG: 40%
[4]; [18]
  % Injury BYG: 50%
[4]; [19]
  % Injury BYG: 70%
[4]; [20]
  % Injury BYG: 70%
[5]; [17]
  % Injury VL: 55%
[5]; [18]
  % Injury VL: 40%
[5]; [19]
  % Injury VL: 70%
[5]; [20]
  % Injury VL: 70%

## CC1(C)OC(c2ccco2)CN1C(=O)C(Cl)Cl (stereo not drawn) [compound 15]
[1]; [9]
  % Injury VL: 70%
[1]; [10]
  % Injury VL: 65%
[1]; [11]
  % Injury VL: 75%
[1]; [12]
  % Injury VL: 70%
[2]; [13]
  % Injury BYG: 100%
[2]; [14]
  % Injury BYG: 100%
[2]; [15]
  % Injury BYG: 100%
[2]; [16]
  % Injury BYG: 100%
Corn [3]; [17]
  % Injury Corn: 25%
Corn [3]; [18]
  % Injury Corn: 25%
Corn [3]; [19]
  % Injury Corn: 30%
Corn [3]; [20]
  % Injury Corn: 20%
[4]; [17]
  % Injury BYG: 0%
[4]; [18]
  % Injury BYG: 10%
[4]; [19]
  % Injury BYG: 15%
[4]; [20]
  % Injury BYG: 40%
[5]; [17]
  % Injury VL: 50%
[5]; [18]
  % Injury VL: 60%
[5]; [19]
  % Injury VL: 65%
[5]; [20]
  % Injury VL: 65%
[6]; [21]
  % Inhibition GFT: 40%
[6]; [22]
  % Inhibition GFT: 100%
[6]; [23]
  % Inhibition GFT: 100%
[6]; [24]
  % Inhibition GFT: 99%
[6]; [25]
  % Inhibition GFT: 65%
[6]; [26]
  % Inhibition GFT: 100%
[6]; [27]
  % Inhibition GFT: 100%
[6]; [28]
  % Inhibition GFT: 99%
[6]; [29]
  % Inhibition GFT: 60%
[6]; [30]
  % Inhibition GFT: 100%
[6]; [31]
  % Inhibition GFT: 100%
[6]; [32]
  % Inhibition GFT: 100%
[6]; [33]
  % Inhibition GFT: 60%
[6]; [34]
  % Inhibition GFT: 99%
[6]; [35]
  % Inhibition GFT: 100%
[6]; [36]
  % Inhibition GFT: 99%
Corn [7]; [21]
  % Inhibition Corn: 0%
Corn [7]; [22]
  % Inhibition Corn: 5%
Corn [7]; [23]
  % Inhibition Corn: 0%
Corn [7]; [24]
  % Inhibition Corn: 5%
Corn [7]; [25]
  % Inhibition Corn: 10%
Corn [7]; [26]
  % Inhibition Corn: 5%
Corn [7]; [27]
  % Inhibition Corn: 0%
Corn [7]; [28]
  % Inhibition Corn: 5%
Corn [7]; [29]
  % Inhibition Corn: 5%
Corn [7]; [30]
  % Inhibition Corn: 10%
Corn [7]; [31]
  % Inhibition Corn: 0%
Corn [7]; [32]
  % Inhibition Corn: 5%
Corn [7]; [33]
  % Inhibition Corn: 15%
Corn [7]; [34]
  % Inhibition Corn: 10%
Corn [7]; [35]
  % Inhibition Corn: 5%
Corn [7]; [36]
  % Inhibition Corn: 5%
[8]; [21]
  % Inhibition VL: 90%
[8]; [22]
  % Inhibition VL: 95%
[8]; [23]
  % Inhibition VL: 85%
[8]; [24]
  % Inhibition VL: 90%
[8]; [25]
  % Inhibition VL: 95%
[8]; [26]
  % Inhibition VL: 85%
[8]; [27]
  % Inhibition VL: 95%
[8]; [28]
  % Inhibition VL: 95%
[8]; [29]
  % Inhibition VL: 95%
[8]; [30]
  % Inhibition VL: 98%
[8]; [31]
  % Inhibition VL: 95%
[8]; [32]
  % Inhibition VL: 98%
[8]; [33]
  % Inhibition VL: 95%
[8]; [34]
  % Inhibition VL: 99%
[8]; [35]
  % Inhibition VL: 98%
[8]; [36]
  % Inhibition VL: 99%
